From US20230374503A1, “COMBINATION” (AstraZeneca AB, priority 2014, published 2023)
In the oligonucleotide strings, read from the 5' end, every base follows the letter of its sugar. An asterisk marks phosphorothioate; unmarked linkages are phosphodiester. Other units and linkages are bracketed, terminal groups are in braces. A string of capitals states the bases alone. k = constrained ethyl (cEt); [5mC] = 5-methylcytosine; d = 2'-deoxy (DNA)

What was measured:
[1] = test system: CT-26 tumors; assay: CT-26 tumor volume with control ASO and isotype control antibody (Example 4); format: in vivo, mouse; conditions: FIG. 4
Method: (§1) The antitumor efficacy of mouse STAT3 ASO in combination with antibodies targeting PD-L1 or CTLA-4, or with an OX40 ligand fusion protein, were evaluated in three mouse syngeneic tumor models: CT-26 (colorectal), 4T1 (mammary) and A20 (lymphoma). Details of tumor implantation and treatment schedules for each model are in the table below. The QD×5/wk dosing schedule for the STAT3 ASO (same ASO as used in Example 1) was 5 days of treatment followed by 2 days without treatment. The 2×/wk dosing schedule for antibodies was 2 treatments/wk evenly spaced over the course of the week (e.g., Monday and Thursday, or Tuesday and Friday, etc.). ASO treatments began before randomization into treatment groups. […] There were ten mice in each treatment group.
(§2) The mouse STAT3 ASO was formulated in PBS and dosed subcutaneously. The Abs and FP were also formulated in PBS, and dosed introperitoneally. During the course of the experiment, tumor length and width were measured by caliper, and tumor volume calculated using the formula volume=(length×width^2)*π/6.
The CT-26 experiment in Example 3 included treatment with a control ASO (AZD9150) and an isotype control antibody (rat IgG2b, product LTF-2, purchased from BioXCell, West Lebanon NH) as negative controls.

[2] = test system: mouse STAT3 sequences; assay: Cross reaction of human STAT3 ASO with mouse STAT3 sequences; conditions: human STAT3 targeted ASO
[3] = test system: immune-related genes; assay: Nanostring gene expression profiling of patient tumor biopsies, Phase I trial (Example 8); format: in vivo, human; conditions: DLBCL patients; 2 or 3 mg/kg; 4-6 weeks on treatment vs baseline; five of six signature genes
Method: Tumor biopsies were collected in a Phase I clinical trial from cancer patients treated with AZD9150 before treatment started and at 4-6 weeks after treatment commenced. Patients received three loading doses 2 or 3 mg/kg AZD9150 during the first week on days 1, 3, and 5, followed by weekly doses thereafter. Nine of the sets of biopsies were from patients with Diffuse Large B Cell Lymphoma, two were from patients with follicular lymphoma, and one was from a patient with non-small cell lung cancer. The biopsies were formalin fixed and paraffin embedded and sectioned. RNA was isolated from six five-micron sections of each biopsy and subjected to Nanostring gene expression profiling analysis using the nCounter Human Immunology Codeset representing 594 immune-related genes. Raw data were calibrated according to Veldman-Jones et al., (Cancer Research. 75:2587, 2015) and analyzed for changes on-treatment compared to the baseline pretreatment samples. A heatmap representing unsupervised clustering of the largest and most statistically relevant gene expression changes in DLBCL was generated.

[4] = test system: DLBCL and HCC; assay: AZD9150 Phase I clinical trials; format: in vivo, human
[5] = test system: advanced melanoma; conditions: phase III; cited from earlier work
[6] = test system: CT-26 (colorectal), 4T1 (mammary) and A20 (lymphoma); assay: Three mouse syngeneic tumor models, tumor volume (Example 3); format: in vivo; conditions: at the doses and schedules of Example 3; FIG. 3
Method: as §1, §2

[7] = test system: xenograft model; conditions: via a T-cell dependent mechanism; cited from earlier work

AZD9150: human STAT3 antisense 3-10-3 cEt gapmer, phosphorothioate, 5-methylcytosines, CTATTTGGATGTCAGC (SEQ ID NO: 2) (antisense k[5mC]*kT*kA*dT*dT*dT*dG*dG*dA*dT*dG*dT*d[5mC]*kA*kG*k[5mC])
enhancement of the activity of the anti-PD-L1 antibody ([1]; AZD9150 plus PD-L1 Ab, CT-26 tumors): no enhancement of the activity of the anti-PD-L1 antibody
antitumor activity of negative controls ([1]; mice bearing CT-26 tumors): No Antitumor Activity
cross reaction with mouse STAT3 sequences [2]: does not cross react with mouse STAT3 sequences
upregulated "interferon gamma gene signature" genes in tumor biopsies [3]: STAT1, IFN-gamma, CXCL9, CXCL10, and IDO
clinical response [4]: clinical responses in DLBCL and HCC at tolerated doses

tremelimumab: human IgG2 monoclonal antibody highly selective for CTLA-4
overall survival compared to standard of care (temozolomide or dacarbazine) [5]: did not significantly increase the overall survival

B1: OX40 ligand FP: Mouse OX40 ligand fusion protein generated in house, SEQ ID NO: 37 and 38 (protein)
chain: VPRDCGCKPCICTVPEVSSVFIFPPKPKDVLTITLTPKVTCVVVDISKDDPEVQFSWFVDDVEVHTAQTQPREEQFNSTFRSVSELPIMHQDWLNGKEFKCRVNSAAFPAPIEKTISKTKGRPKAPQVYTIPPPKEQMAKDKVSLTCMITDFFPEDITVEWQWNGQPAENYKNTQPIMDTDGSYFVYSKLNVQKSNWEAGNTFTCSVLHEGLHNHHTEKSLSHSPGKRLDQDKIEALSNKVQQLERSIGLKDLAMADLEQKVSELEVSTSSPAKDPPIQRLRGAVTRCEDGQLFISSYKNEYQTMEVQNNSVVIKCDGLYIIYLKGSFFQEVKIDLHFREDHNPISIPMLNDGRRIVFTVVASLAFKDKVYLTVNAPDTLCEHLQINDGELIVVQLTPGYCAPEGSYHSTVNQVPL
modifications: misc_feature 1..1248 DNA Sequence of mouse construct mIgG1mTF2mOX40L
single agent antitumor activity [6]: weak to modest single agent antitumor activity

B2: MEDI4736: human monoclonal antibody directed against human PD-L1 (antibody, V domains shown)
VH: EVQLVESGGGLVQPGGSLRLSCAASGFTFSRYWMSWVRQAPGKGLEWVANIKQDGSEKYYVDSVKGRFTISRDNAKNSLYLQMNSLRAEDTAVYYCAREGGWFGELAFDYWGQGTLVTVSS
VL: EIVLTQSPGTLSLSPGERATLSCRASQRVSSSYLAWYQQKPGQAPRLLIYDASSRATGIPDRFSGSGSGTDFTLTISRLEPEDFAVYYCQQYGSLPWTFGQGTKVEIK
modifications: MEDI4736 VH; Sequence 72 from PCT/US2010/058007; MEDI4736 VL; Sequence 77 from PCT/US2010/058007
notes: human monoclonal antibody directed against human PD-L1
tumor growth in a xenograft model [7]: inhibits tumor growth
